In patent US20200129531A1, “USE OF WITHANIA SOMNIFERA EXTRACT TO PROTECT AGAINST AIR POLLUTION RELATED DISEASES” (DSM IP Assets B.V., priority 2017, published 2020):

How the values were obtained:
IL-6 [1] = assay: IL-6 secretion of BEAS-2B cells treated with Diesel Particulate Matter; type: cell-based, human; conditions: 24 h
Source text: (§1) The human bronchial epithelial cell line BEAS-2B was from ATCC (American Type Culture Collection, Manassas, Va.) and cultured in Bronchial Epithelial cell Growth Medium (BEGM, Lonza, Wakersville, Md.) in CellBIND® surface plastic flasks (Corning Inc., Corning, N.Y.). The adenocarcinomic human alveolar basal epithelial A549 cell line was obtained from ATCC and cultured in Kaighn's Modification of Ham's F-12 Medium (F-12K medium) (Life Technologies, USA), supplemented with 10% FBS (Sigma, Saint-Louis, Mo.). These cells were cultured at 37° C. in a humidified atmosphere containing 5% CO2.
(§2) BEAS-2B cells were seeded in 12-well CellBIND® surface culture plates (Corning Inc.) at 3 to 4×10^5 cells per well. A549 cells were seeded in 12-well plates at 2×10^5 cells per well.
(§3) Diesel Particulate Matter (Standard Reference Material SRM 1650b, National Institute of Standards & Technology, NIST, Gaithersburg, Md.) at 80 mg/ml DMSO (100%) were sonicated for 5 min and thereafter diluted 400 fold in medium. This dilution was twofold further diluted for the assay.
(§4) After 24 h, cells were treated with the diluted Diesel Particulate Matter at 100 μg/ml and in the presence of different concentrations of Withania somnifera extracts, other plant extracts, fractions and compounds as indicated. The final DSMO concentrations were 0.175%.
(§5) Untreated cells or cells treated with 0.175% DMSO were used as controls. After 24 h, cell supernatants were collected.
(§6) The concentrations of IL-6 and IL-8 in the supernatants were determined by Luminex kits (BIO-RAD Laboratories, Hercules, Calif.) and used in the LiquiChip Workstation IS 200 (Qiagen, Hilden, Germany). The data were evaluated with the LiquiChip Analyser software (Qiagen).

MCP-1 = MCP-1 secretion of A549 cells treated with Diesel Particulate Matter; type: cell-based, human; conditions: for effect on PM-induced MCP-1 secretion (in words): A549; for MCP-1 / MCP-1 % of PM + DMSO: Table 9, A549, 24 h
Source text: The human bronchial epithelial cell line BEAS-2B was from ATCC (American Type Culture Collection, Manassas, Va.) and cultured in Bronchial Epithelial cell Growth Medium (BEGM, Lonza, Wakersville, Md.) in CellBIND® surface plastic flasks (Corning Inc., Corning, N.Y.). The adenocarcinomic human alveolar basal epithelial A549 cell line was obtained from ATCC and cultured in Kaighn's Modification of Ham's F-12 Medium (F-12K medium) (Life Technologies, USA), supplemented with 10% FBS (Sigma, Saint-Louis, Mo.). These cells were cultured at 37° C. in a humidified atmosphere containing 5% CO2. BEAS-2B cells were seeded in 12-well CellBIND® surface culture plates (Corning Inc.) at 3 to 4×10^5 cells per well. A549 cells were seeded in 12-well plates at 2×10^5 cells per well. […] This dilution was twofold further diluted for the assay. After 24 h, cells were treated with the diluted Diesel Particulate Matter at 100 μg/ml and in the presence of different concentrations of Withania somnifera extracts, other plant extracts, fractions and compounds as indicated. The final DSMO concentrations were 0.175%. Untreated cells or cells treated with 0.175% DMSO were used as controls. After 24 h, cell supernatants were collected.

IL-6 [2] = assay: IL-6 secretion of A549 cells treated with Diesel Particulate Matter; type: cell-based, human; conditions: for effect on PM-induced IL-6 secretion (in words): A549; for IL-6 / IL-6 % of PM + DMSO: Table 5, A549, 24 h
Source text: as §1, §2, §3, §4, §5, §6

IL-8 = IL-8 secretion of A549 cells treated with Diesel Particulate Matter; type: cell-based, human; conditions: for effect on IL-8 secretion (in words): A549, PM-induced; for IL-8 / IL-8 % of PM + DMSO: Table 7, A549, 24 h
Source text: as §1, §2, §3, §4, §5, §6

PGE2 = PGE2 secretion of BEAS-2B cells treated with Diesel Particulate Matter; type: cell-based, human; conditions: for effect on PGE2 secretion compared to PM with DMSO (in words): PM-treated BEAS-2B; for PGE2 / PGE2 % of PM + DMSO: Table 10, BEAS-2B, 24 h
Source text: as §1, §2, §3, §4, §5
Secreted PGE2 was determined by Enzyme Immuno Assay (EIA) (Cayman Chemicals, Ann Harbor, […].).

Nrf2 = assay: Luciferase reporter assay using H411E-ARE8L cells (Nrf2 activation); conditions: Conc. final 22.73 μg/ml
Procedure: Luciferase Reporter Assay Using H411E-ARE8L Cells:
The medium for H411E-ARE8L cells was Dulbecco's Modified Eagle Medium (DMEM) high glucose containing heat inactivated 10% fetal bovine Serum (FBS). The media was exchanged every two to three-days. The DMEM assay medium used charcoal treated FBS (DMEMct). The transactivation assay was performed in 96 well plates. The plates were seeded with approximately 40′000 cells per well in 100 μl DMEMct and incubated over night at 37° C. Then the test compounds were diluted in DMEDct and given to the cells as described below. The cells were incubated for at least further 16 h at 37° C. and 5% CO2. Cells were equilibrated to room temperature. Lysis of the cells was done by adding 100 μL lysis solution, Steady-Glo© luciferase buffer according to the manufacturer (Promega) containing 0.5 mM DTT per well and incubated for 10 min at room temperature with gentle shaking. The luminescence was measured within 2 hours after incubation on a luminometer (Mithras, Berthold Technologies).
The negative control were cells in 0.5% DMSO.
All extracts, fractions and pure compounds were tested for concentrations that induce toxicity. Non-toxic concentrations were then selected for treating cells as describes in the methods section.

[3] = Table 3, 5 μg/ml + PM 100 μg/ml
[4] = Table 3, 10 μg/ml + PM 100 μg/ml

CO[C@H]1CC(=O)[C@]2(C)[C@H]3CC[C@]4(C)[C@@H]([C@H](C)[C@H]5CC(C)=C(CO)C(=O)O5)CC[C@H]4[C@@H]3C[C@H]3O[C@]32[C@H]1O [Quresimine A, quresimine A]
IL-6 (IL-6 [1]; [3]): 23.5 pg/mL | IL-6 % of PM + DMSO (IL-6 [1]; [3]): 94% | effect on PM-induced MCP-1 secretion (in words) (MCP-1): low, but non-significant decrease | MCP-1 (MCP-1; 5 μg/ml + PM 100 μg/ml): 796.7 pg/mL | MCP-1 % of PM + DMSO (MCP-1; 5 μg/ml + PM 100 μg/ml): 92% | effect on PM-induced IL-6 secretion (in words) (IL-6 [2]): decrease | IL-6 (IL-6 [2]; 5 μg/ml + PM 100 μg/ml): 9.5 pg/mL | IL-6 % of PM + DMSO (IL-6 [2]; 5 μg/ml + PM 100 μg/ml): 75% | effect on IL-8 secretion (in words) (IL-8): significant inhibition | IL-8 (IL-8; 5 μg/ml + PM 100 μg/ml): 242 pg/mL | IL-8 % of PM + DMSO (IL-8; 5 μg/ml + PM 100 μg/ml): 80% | effect on PGE2 secretion compared to PM with DMSO (in words) (PGE2): borderline | PGE2 (PGE2; 5 μg/ml + PM 100 μg/ml): 33.2 pg/mL | PGE2 % of PM + DMSO (PGE2; 5 μg/ml + PM 100 μg/ml): 87%

12-deoxywithastramonolide
Nrf-2 activity, Average (Nrf2): 33869 relative units of luciferase fluorescence | Nrf-2 activity, Normalized data (Nrf2; R-sulforaphane set to 1.0, DMSO 0): 1.1701 | IL-6 (IL-6 [1]; [4]): 51.9 pg/mL | IL-6 % of PM + DMSO (IL-6 [1]; [4]): 207% | effect on PM-induced MCP-1 secretion (in words) (MCP-1): significant decrease | MCP-1 (MCP-1; 10 μg/ml + PM 100 μg/ml): 646.3 pg/mL | MCP-1 % of PM + DMSO (MCP-1; 10 μg/ml + PM 100 μg/ml): 74% | effect on PM-induced IL-6 secretion (in words) (IL-6 [2]): decrease | IL-6 (IL-6 [2]; 10 μg/ml + PM 100 μg/ml): 9.5 pg/mL | IL-6 % of PM + DMSO (IL-6 [2]; 10 μg/ml + PM 100 μg/ml): 75% | effect on IL-8 secretion (in words) (IL-8): significant inhibition | IL-8 (IL-8; 10 μg/ml + PM 100 μg/ml): 208.3 pg/mL | IL-8 % of PM + DMSO (IL-8; 10 μg/ml + PM 100 μg/ml): 69% | effect on PGE2 secretion compared to PM with DMSO (in words) (PGE2): significant decrease | PGE2 (PGE2; 10 μg/ml + PM 100 μg/ml): 28.3 pg/mL | PGE2 % of PM + DMSO (PGE2; 10 μg/ml + PM 100 μg/ml): 74%
